Legend:
[1] = biological target: cathepsin B (Homo sapiens, UniProt P07858); assay: Activity at cathepsin B proteolytic enzyme; format: biochemical
[2] = tested on: cultured rat hippocampal neurons expressing GFP-tagged P301S tau; assay: Accumulation of P301S tau in dendritic spines of cultured hippocampal neurons; format: cell-based; settings: 10 μM for 3 days
Description: The disproportionate accumulation in dendritic spines of mutant tau linked to FTDP-17 depends upon tau-truncation by Casp2 (Zhao X, et al., Nat Med., 2016, 22, 1268-76). […] The P301S tau mutation linked to FTDP-17 (Bugiani O, et al., J Neuropathol Exp Neurol., 1999, 58, 667-677; and Lossos A, et al., J Neurol., 2003, 250, 733-740) was examined to determine whether Compound 1 could prevent the accumulation of tau in dendritic spines. Dissociated hippocampal neurons from postnatal day 0-1 rat pups were cultured. After 5-7 days in vitro (DIV), the neurons were co-transfected with plasmids encoding DsRed (to label neuronal morphology) and GFP-tagged wild-type or P301S mutant tau proteins (FIG. 2A), as previously described (Hoover B R, et al., Neuron., 2010, 68:1067-1081). Neurons at 17-18 DIV were incubated with 10 μM Compound 1 for 3 days and live neurons were imaged at 20-21 DIV.
For all cultured hippocampal neuron studies all human tau and DsRed constructs were expressed in the pRK5 vector and driven by the cytomegalovirus promoter (Clontech Inc.). Human tau proteins were N-terminally fused to enhance GFP (eGFP). The wild-type, native human tau construct encoded human four-repeat tau lacking the transcriptional-variant N-terminal sequences (0N4R) and contained exons 1, 4, 5, 7, 9-13, 14, and intron 13 (RRID: Addgene_46904). […]

For `Cc1ccc2c(c1)CCN(C(=O)[C@@H](NC(=O)[C@H](CCCC(=O)O)NC(=O)C1Cc3ccccc3N1)C(C)C)[C@@H]2C(=O)N[C@H](C#N)CC(=O)O` (stereo partly drawn) [Compound 1, (8)-6-(((S)-1-((8)-1-(((S)-2-carboxy-1-cyanoethyl)carbamoyl)-6-methyl-3,4-dihydroisoquinolin-2(1H)-yl)-3-methyl-1-oxobutan-2-yl)amino)-5-((S)-indoline-2-carboxamido)-6-oxohexanoic acid], the “activity at cathepsin B” value [1] was “weak activity”, the “density of dendritic spines” value ([2]; compared with untreated wild-type and P301S tau groups) was “no significant differences” and the “percentage of dendritic spines containing GFP-tagged tau” value ([2]; neurons expressing P301S tau, untreated P301S 75.5%, wild-type tau 21.9%) was 24.8%.

Reference: patent publication US20250188123A1, “PROTEASE INHIBITORS” (Regents of the University of Minnesota, priority 2022, published 2025)
